In the experiment the target is T1, Human ATX protein (Homo sapiens, UniProt Q13822).
T1 construct: made in house
Briefly: ATX biochemical assay (FRET, FS-3 substrate). Conditions: FRET assay, FS-3 2 μM, ATX 1.0 μg/mL, 30 minutes preincubation, 2 hours reaction at room temperature; read-out: IC50. Summed up:
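In-house human ATX (1.0 μg/mL final) was preincubated with compound for 30 min at room temperature in Tris buffer pH 7.4 with 1 mg/mL fatty acid free-BSA. FS-3 substrate (2 μM final) was then hydrolysed for 2 hours at room temperature, protected from light, and read as fluorescence at ex 485/em 538 nm.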
For orientation: IC50 means the midpoint of a concentration-inhibition curve. For the compound `CC1CCC(Cn2nc(C(F)(F)F)c3c2CN(C(=O)C[C@H]2CC[C@H](C(=O)O)CC2)CC3)CC1` (stereo partly drawn) [Example 5-37, trans-4-(2-(1-((4-Methylcyclohexyl)methyl)-3-(trifluoromethyl)-4,5-dihydro-1H-pyrazolo[3,4-c]pyridin-6(7H)-yl)-2-oxoethyl)cyclohexanecarboxylic acid], the half-inhibitory concentration (IC50) is not above 100 nM.

As for `O=C(C[C@H]1CC[C@H](C(=O)O)CC1)N1CCc2c(C3CC3)nn(Cc3ccc(F)cc3)c2C1` [Example 5-38, trans-4-(2-(3-Cyclopropyl-1-(4-fluorobenzyl)-4,5-dihydro-1H-pyrazolo[3,4-c]pyridin-6(7H)-yl)-2-oxoethyl)cyclohexanecarboxylic acid], the IC50 was not above 100 nM.

Take `O=C(C[C@H]1CC[C@H](C(=O)O)CC1)N1CCc2c(-c3ccccc3)nn(Cc3ccc(F)cc3)c2C1` [Example 5-39, trans-4-(2-(1-(4-Fluorobenzyl)-3-phenyl-4,5-dihydro-1H-pyrazolo[3,4-c]pyridin-6(7H)-yl)-2-oxoethyl)cyclohexanecarboxylic acid]: the half-maximal inhibitory concentration (IC50) was not above 100 nM.

Regarding `O=C(C[C@H]1CC[C@H](C(=O)O)CC1)N1CCc2c(-c3cccnc3)nn(Cc3ccc(F)cc3)c2C1` [Example 5-40, trans-4-(2-(1-(4-Fluorobenzyl)-3-(pyridin-3-yl)-4,5-dihydro-1H-pyrazolo[3,4-c]pyridin-6(7H)-yl)-2-oxoethyl)cyclohexanecarboxylic acid], the 50% inhibitory concentration (IC50) was not above 100 nM.

Turning to `CCOc1nn(Cc2ccc(F)cc2)c2c1CCN(C(=O)C[C@H]1CC[C@H](C(=O)O)CC1)C2` [Example 5-42, trans-4-(2-(3-Ethoxy-1-(4-fluorobenzyl)-4,5-dihydro-1H-pyrazolo[3,4-c]pyridin-6(7H)-yl)-2-oxoethyl)cyclohexanecarboxylic acid], the IC50 was not above 100 nM.

With `CN(C)c1nn(Cc2ccc(F)cc2)c2c1CCN(C(=O)C[C@H]1CC[C@H](C(=O)O)CC1)C2` [Example 5-43, trans-4-(2-(3-(Dimethylamino)-1-(4-fluorobenzyl)-4,5-dihydro-1H-pyrazolo[3,4-c]pyridin-6 (7H)-yl)-2-oxoethyl)cyclohexanecarboxylic acid], the half-inhibitory concentration (IC50) is not above 100 nM.

For `O=C(C[C@H]1CC[C@H](C(=O)O)CC1)N1CCc2c(C(F)F)nn(Cc3ccc(F)cc3)c2C1` [Example 5-44, trans-4-(2-(3-(Difluoromethyl)-1-(4-fluorobenzyl)-4,5-dihydro-1H-pyrazolo[3,4-c]pyridin-6(7H)-yl)-2-oxoethyl)cyclohexanecarboxylic acid], the IC50 is not above 100 nM.

With `O=C(C[C@H]1CC[C@H](C(=O)O)CC1)N1CCc2c(CO)nn(Cc3ccc(F)cc3)c2C1` [Example 5-45, trans-4-(2-(1-(4-Fluorobenzyl)-3-(hydroxymethyl)-4,5-dihydro-1H-pyrazolo[3,4-c]pyridin-6(7H)-yl)-2-oxoethyl)cyclohexanecarboxylic acid], the IC50 is not above 100 nM.

As to `N#Cc1nn(Cc2ccc(F)cc2)c2c1CCN(C(=O)C[C@H]1CC[C@H](C(=O)O)CC1)C2` [Example 5-46, trans-4-(2-(3-Cyano-1-(4-fluorobenzyl)-4,5-dihydro-1H-pyrazolo[3,4-c]pyridin-6(7H)-yl)-2-oxoethyl)cyclohexanecarboxylic acid], the half-inhibitory concentration (IC50) is not above 100 nM.

As for `NC(=O)c1nn(Cc2ccc(F)cc2)c2c1CCN(C(=O)C[C@H]1CC[C@H](C(=O)O)CC1)C2` [Example 5-47, trans-4-(2-(3-Carbamoyl-1-(4-fluorobenzyl)-4,5-dihydro-1H-pyrazolo[3,4-c]pyridin-6(7H)-yl)-2-oxoethyl)cyclohexanecarboxylic acid], the IC50 lay within 250 to 500 nM.

For the compound `O=C(O)C[C@H]1CC[C@H](CC(=O)N2CCc3c(C(F)(F)F)nn(Cc4ccc(F)cc4)c3C2)CC1` [Example 5-48, 2-(trans-4-(2-(1-(4-Fluorobenzyl)-3-(trifluoromethyl)-4,5-dihydro-1H-pyrazolo[3,4-c]pyridin-6(7H)-yl)-2-oxoethyl)cyclohexyl)acetic acid], the half-maximal inhibitory concentration (IC50) is not above 100 nM.

For the compound `O=C(O)C[C@H]1CC[C@@H](CC(=O)N2CCc3c(C(F)(F)F)nn(Cc4ccc(F)cc4)c3C2)CC1` [Example 5-49, 2-(cis-4-(2-(1-(4-Fluorobenzyl)-3-(trifluoromethyl)-4,5-dihydro1H-pyrazolo[3,4-c]pyridin-6(7H)-yl)-2-oxoethyl)cyclohexyl)acetic acid], the IC50 was not above 100 nM.

Consider `O=C(O)C12CCC(C(=O)N3CCc4c(C(F)(F)F)nn(Cc5ccc(F)cc5)c4C3)(CC1)C2` [Example 5-50, 4-(1-(4-Fluorobenzyl)-3-(trifluoromethyl)-4,5,6,7-tetrahydro-1H-pyrazolo[3,4-c]pyridine-6-carbonyl)bicyclo[2.2.1]heptane-1-carboxylic acid], for which the 50% inhibitory concentration (IC50) was not above 100 nM.

For `O=C(O)C12CCC(C(=O)N3CCc4c(C(F)(F)F)nn(Cc5ccc(Cl)cc5F)c4C3)(CC1)C2` [Example 5-51], the half-maximal inhibitory concentration (IC50) was not above 100 nM.

Regarding `O=C(CC12CCC(C(=O)O)(CC1)C2)N1CCc2c(C(F)(F)F)nn(Cc3ccc(Cl)cc3F)c2C1` [Example 5-52, 4-(2-(1-(4-Chloro-2-fluorobenzyl)-3-(trifluoromethyl)-4,5-dihydro-1H-pyrazolo[3,4-c]pyridin-6(7H)-yl)-2-oxoethyl)bicyclo[2.2.1]heptane-1-carboxylic acid], the IC50 was not above 100 nM.

Regarding `O=C(CC12CCC(C(=O)O)(CC1)C2)N1CCc2c(C(F)(F)F)nn(Cc3ccc(F)cc3)c2C1` [Example 5-53, 4-(2-(1-(4-Fluorobenzyl)-3-(trifluoromethyl)-4,5-dihydro-1H-pyrazolo[3,4-c]pyridin-6(7H)-yl)-2-oxoethyl)bicyclo[2.2.1]heptane-1-carboxylic acid], the IC50 was not above 100 nM.

Turning to `O=C(CC1C2CC3CC1CC(C(=O)O)(C3)C2)N1CCc2c(C(F)(F)F)nn(Cc3ccc(Cl)cc3F)c2C1` (stereo not drawn) [Example 5-54, 4-(2-(1-(4-Chloro-2-fluorobenzyl)-3-(trifluoromethyl)-4,5-dihydro-1H-pyrazolo[3,4-c]pyridin-6(7H)-yl)-2-oxoethyl) adamantancarboxylic acid], the IC50 was not above 100 nM.

Consider `O=C(CC1C2CC3CC1CC(C(=O)O)(C3)C2)N1CCc2c(C(F)(F)F)nn(Cc3ccc(F)cc3)c2C1` (stereo not drawn) [Example 5-55], for which the IC50 is not above 100 nM.

As to `CC(C)(C)OC(=O)N1CC(CC(=O)N2CCc3c(C(F)(F)F)nn(Cc4ccc(Cl)cc4F)c3C2)C[C@@H]1C(=O)O` (stereo partly drawn) [Example 5-56, (2R)-1-(tert-Butoxycarbonyl)-4-(2-(1-(4-chloro-2-fluorobenzyl)-3-(trifluoromethyl)-4,5-dihydro-1H-pyrazolo[3,4-c]pyridin-6(7H)-yl)-2-oxoethyl)pyrrolidine-2-carboxylic acid], the IC50 was not above 100 nM.

For `CC(C(=O)N1CCc2c(C(F)(F)F)nn(Cc3ccc(Cl)cc3F)c2C1)C1CCC(C(=O)O)CC1` (stereo not drawn) [Example 6-4, 4-(1-(1-(4-Chloro-2-fluorobenzyl)-3-(trifluoromethyl)-4,5-dihydro-1H-pyrazolo[3,4-c]pyridin-6(7H)-yl)-1-oxopropan-2-yl)cyclohexanecarboxylic acid], the IC50 was not above 100 nM.

With `CC1(C(=O)O)CCC(CC(=O)N2CCc3c(C(F)(F)F)nn(Cc4ccc(F)cc4)c3C2)CC1` (stereo not drawn) [Example 6-11, 4-(2-(1-(4-Fluorobenzyl)-3-(trifluoromethyl)-4,5-dihydro-1H-pyrazolo[3,4-c]pyridin-6(7H)-yl)-2-oxoethyl)-1-methylcyclohexanecarboxylic acid], the concentration for half-maximal inhibition (IC50) is not above 100 nM.

Regarding `O=C(O)C1CC2(CC(CC(=O)N3CCc4c(C(F)(F)F)nn(Cc5ccc(Cl)cc5F)c4C3)C2)C1` (stereo not drawn) [Example 6-12, 6-(2-(1-(4-Chloro-2-fluorobenzyl)-3-(trifluoromethyl)-4,5-dihydro-1H-pyrazolo[3,4-c]pyridin-6(7H)-yl)-2-oxoethyl)spiro[3.3]heptane-2-carboxylic acid], the concentration for half-maximal inhibition (IC50) is not above 100 nM.

As to `O=C(O)C1CC2(CC(CC(=O)N3CCc4c(C(F)(F)F)nn(Cc5ccc(F)cc5)c4C3)C2)C1` (stereo not drawn) [Example 6-13, 6-(2-(1-(4-Fluorobenzyl)-3-(trifluoromethyl)-4,5-dihydro-1H-pyrazolo[3,4-c]pyridin-6(7H)-yl)-2-oxoethyl)spiro[3.3]heptane-2-carboxylic acid], the IC50 is not above 100 nM.

Turning to `O=C(O)[C@H]1C2C3C[C@@H]1C(CC(=O)N1CCc4c(C(F)(F)F)nn(Cc5ccc(Cl)cc5F)c4C1)C32` (stereo partly drawn) [Example 6-16, (3R,4R)-5-(2-(1-(4-Chloro-2-fluorobenzyl)-3-(trifluoromethyl)-4,5-dihydro-1H-pyrazolo[3,4-c]pyridin-6(7H)-yl)-2-oxoethyl)tricyclo[2.2.1.02,6]heptane-3-carboxylic acid], the IC50 is not above 100 nM.

Consider `O=C(O)[C@H]1C2C3C[C@@H]1C(CC(=O)N1CCc4c(C(F)(F)F)nn(Cc5ccc(F)cc5)c4C1)C32` (stereo partly drawn) [Example 6-17, (3R,4R)-5-(2-(1-(4-Fluorobenzyl)-3-(trifluoromethyl)-4,5-dihydro-1H-pyrazolo[3,4-c]pyridin-6(7H)-yl)-2-oxoethyl)tricyclo[2.2.1.02,6]heptane-3-carboxylic acid], for which the IC50 was not above 100 nM.

Turning to `CC1(C(=O)O)CC(CC(=O)N2CCc3c(C(F)(F)F)nn(Cc4ccc(Cl)cc4F)c3C2)C1` (stereo not drawn) [Example 6-18, 3-(2-(1-(4-Chloro-2-fluorobenzyl)-3-(trifluoromethyl)-4,5-dihydro-1H-pyrazolo[3,4-c]pyridin-6(7H)-yl)-2-oxoethyl)-1-methylcyclobutanecarboxylic acid], the IC50 is not above 100 nM.

For the compound `O=C(C[C@H]1CC[C@H](C(=O)O)CC1)N1CCc2c(C(F)(F)F)nn(Cc3ccc(F)cc3)c2C1` [Example 7-1, trans-4-(2-(1-(4-Fluorobenzyl)-3-(trifluoromethyl)-4,5-dihydro-1H-pyrazolo[3,4-c]pyridin-6(7H)-yl)-2-oxoethyl)cyclohexanecarboxylic acid], the IC50 is not above 100 nM.

For the origin of these results see patent publication US10144732B2 (BIOGEN MA INC., priority 2014, dated 2018).
